Experimental data published in patent US8501732B2, “Aminomethyl quinolone compounds” (Hoffmann-La Roche Inc., priority 2011, dated 2013).
Where a name gives a salt, the structure may show the parent alone.

Assays:
[1] = system: phospho(Ser63)-c-jun in HK-2 cells; experiment: Cell-Based Assay for JNK Inhibitors (in-cell ELISA, phospho(Ser63)-c-jun after TNFα); conditions: HK-2 cells (human proximal tubule cells), 60 minutes compound, then 10 ng/mL TNFα for 30 minutes
Protocol: Cell-Based Assay for JNK Inhibitors
The cell-based assay employed the in-cell ELISA method to determine the ability of compounds to prevent the generation of phospho(Ser63)-c-jun in HK-2 cells (human proximal tubule cells) in response to stimulation with tumor necrosis factor α (TNFα). In brief, for quantification of phospho(Ser63)-c-jun, the cells (in 96-well format) were fixed and permeablized then incubated sequentially with a rabbit anti-phospho-c-jun First Antibody specific for the presence of the phospho-Ser63 epitope and a donkey anti-rabbit IgG Second Antibody linked to horseradish peroxidase (HRP) for colorimetric quantitation of binding. […] Blank wells received no TNFα stimulation or compound. Additional Control wells received TNFα stimulation, but no compound.
Stock cultures of HK-2 cells (ATCC, Manassas, Va.) were grown under a 5% CO2/[…] atmosphere at 37 degrees C. in Keratinocyte-SFM medium (KSFM, Invitrogen, Grand Island, N.Y.) containing 5 μg/L epidermal growth factor and 5 mg/L bovine pituitary extract (both supplied with the medium), additionally supplemented with 10% (v/v) fetal calf serum (FCS; Invitrogen, Grand Island, N.Y.) and 1% (v/v) antibiotic-antimycotic (ABAM: Sigma, St. Louis, Mo.). For assays, cells were seeded in collagen coated 96-well polystyrene plates (BD Biosciences, Franklin Lakes, N.J.) at a density of 40,000 cells/well and cultured for 24 h in the same medium (100 μL/well) followed by a further 16-24 h in 100 μL of similar medium, but without FCS. […] Plates were then allowed to stand at room temperature for 20 minutes before being washed with 200 μL/well of PBS. (Further steps were performed immediately or the plates were stored at 4 degrees C. and the assay completed the next day.) To each well was added 100 μL 1% (v/v) TritonX-100 (Sigma, St. Louis, Mo.) in PBS followed by 20 minutes standing at room temperature, washing with 200 μL/well PBS, the addition of 100 μL/well of Quenching buffer (1% (v/v) hydrogen peroxide (Sigma, St. Louis, Mo.) and 0.1% (w/v) sodium azide (Fisher Scientific, Fair Lawn, N.J.)) in PBS and a further 20 minutes at room temperature. Plates were then washed twice with 200 μL/well of 0.1% (v/v) Tween-20 (Teknova, Hollister, Calif.) in PBS before addition of 200 μL/well of 2% BSA/0.1% Tween-20 in PBS and a further 1 hour at room temperature. […] After a further one hour, rabbit anti-phospho-c-jun-Ser63 is added directly to the solution in the Blank wells resulting in 1:250 dilution of this antibody. Plates were then placed on a slowly rotating platform at 4 degrees C. overnight. Wells were then washed thrice with 200 μL/well PBS/0.1% Tween-20. After addition of the third wash, the plates were placed on a slowly rotating platform for 15 minutes at room temperature. The final PBS/Tween20 wash was then replaced with 100 μL/well of donkey anti-rabbit HRP-labeled Second Antibody (Jackson ImmunoResearch Laboratory, West Grove, Pa.) diluted 1:10,000 in Antibody Dilution Buffer and the plates placed on a slowly rotating platform for 1 hour at room temperature. Wells were then washed four times with 200 μL/well PBS/0.1% Tween-20, including slow rotation for 30 minutes for the third wash and 10 minutes for the final wash. The wells were then washed once with 200 μL PBS without Tween-20. […] Absorbance was determined at a 450 nm wavelength using a spectrophotometer (Molecular Devices SpectraMax 250).

JNK1 = JNK1 (Homo sapiens (Human), UniProt P45983); experiment: In Vitro JNK1 Assay (TR-FRET, phosphorylation of GST-c-Jun); assay type: biochemical; conditions: 0.2 nM active JNK1 kinase, 26.7 nM GST-c-Jun, 2 μM ATP, 30 min at room temperature
Chain of JNK1 (P45983 whole entry, the tested form may be a part): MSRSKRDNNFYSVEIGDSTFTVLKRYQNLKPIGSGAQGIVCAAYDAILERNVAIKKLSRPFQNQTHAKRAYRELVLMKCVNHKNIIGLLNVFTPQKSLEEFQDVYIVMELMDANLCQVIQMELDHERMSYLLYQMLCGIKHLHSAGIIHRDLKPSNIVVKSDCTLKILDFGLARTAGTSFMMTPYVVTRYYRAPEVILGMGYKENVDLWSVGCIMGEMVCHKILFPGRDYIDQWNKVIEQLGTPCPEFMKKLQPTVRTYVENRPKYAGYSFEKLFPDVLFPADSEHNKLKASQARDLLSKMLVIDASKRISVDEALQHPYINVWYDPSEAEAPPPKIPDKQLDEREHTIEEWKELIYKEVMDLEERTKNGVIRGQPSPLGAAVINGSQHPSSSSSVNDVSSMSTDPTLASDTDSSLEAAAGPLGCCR
In short: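 GST-c-Jun (residues 1-79) phosphorylation by JNK1 in 50 mM HEPES pH 7.0, MgCl2, 1 mM DTT, 0.1 mM Na3VO4, 0.2 mg/mL BSA, 30 min at room temperature. Stopped with EDTA plus anti-phospho-c-Jun antibody and read by TR-FRET 1 hr later. IC50 from percent inhibition over 10 serial dilutions.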

| SMILES | EC50 [1] [nM] | IC50 (JNK1) [nM] |
| --- | --- | --- |
| CN(C)C(=O)c1c(CNC(=O)c2ccc(N3CCOCC3)nc2)c(=O)c2ccc(Cl)cc2n1-c1ccccc1 [Example I-13, 7-Chloro-3-{[(6-morpholin-4-yl-pyridine-3-carbonyl)-amino]-methyl}-4-oxo-1-phenyl-1,4-dihydro-quinoline-2-carboxylic acid dimethylamide] | 37000 | 35 |
| CN(C)C(=O)c1c(CNC(=O)c2cnc(N3CCOCC3)s2)c(=O)c2ccc(Cl)cc2n1-c1ccccc1 [Example I-14, 7-Chloro-3-{[(2-morpholin-4-yl-thiazole-5-carbonyl)-amino]-methyl}-4-oxo-1-phenyl-1,4-dihydro-quinoline-2-carboxylic acid dimethylamide] | 25000 | 36 |
| COc1ccc(C(=O)NCc2c(C(=O)N(C)C)n(-c3ccccc3)c3cc(Cl)ccc3c2=O)cc1 [Example I-15, 7-Chloro-3-[(4-methoxy-benzoylamino)-methyl]-4-oxo-1-phenyl-1,4-dihydro-quinoline-2-carboxylic acid dimethylamide] | 54000 | 64 |
| CN(C)C(=O)c1c(CNC(=O)c2ccc3ncsc3c2)c(=O)c2ccc(Cl)cc2n1-c1ccccc1 [Example I-16, 3-{[(Benzothiazole-6-carbonyl)-amino]-methyl}-7-chloro-4-oxo-1-phenyl-1,4-dihydro-quinoline-2-carboxylic acid dimethylamide] | 35000 | 66 |
| CN(C)C(=O)c1c(CNC(=O)c2ccc(S(C)(=O)=O)cc2)c(=O)c2ccc(Cl)cc2n1-c1ccccc1 [Example I-19, 7-Chloro-3-[(4-methanesulfonyl-benzoylamino)-methyl]-4-oxo-1-phenyl-1,4-di-hydro-quinoline-2-carboxylic acid dimethylamide] | 30000 | 180 |
| CN(C)C(=O)c1c(CNC(=O)c2ccn(Cc3ccccc3)c(=O)c2)c(=O)c2ccc(Cl)cc2n1-c1ccccc1 [Example I-22, 3-{[(1-Benzyl-2-oxo-1,2-dihydro-pyridine-4-carbonyl)-amino]-methyl}-7-chloro-4-oxo-1-phenyl-1,4-dihydro-quinoline-2-carboxylic acid dimethylamide] | 25000 | 330 |
| CN(C)C(=O)c1c(CNC(=O)c2cnn(C)c2)c(=O)c2ccc(Cl)cc2n1-c1ccccc1 [Example I-23, 7-Chloro-3-{[(1-methyl-1H-pyrazole-4-carbonyl)-amino]-methyl}-4-oxo-1-phenyl-1,4-dihydro-quinoline-2-carboxylic acid dimethylamide] | 87000 | 780 |
| CN(C)C(=O)c1c(CNC(=O)c2ccc(N3CCC(CO)CC3)nc2)c(=O)c2ccc(Cl)cc2n1-c1ccccc1 [Example I-24, 4-Hydroxymethyl-3,4,5,6-tetrahydro-2H-[1,2′]bipyridinyl-5′-carboxylic acid (7-chloro-2-dimethylcarbamoyl-4-oxo-1-phenyl-1,4-dihydro-quinolin-3-ylmethyl)-amide] | 11000 | 140 |
| CN(C)C(=O)c1c(CNC(=O)c2ccc(N3CCC(CCO)CC3)nc2)c(=O)c2ccc(Cl)cc2n1-c1ccccc1 [Example I-25, 4-(2-Hydroxy-ethyl)-3,4,5,6-tetrahydro-2H-[1,2′]bipyridinyl-5′-carboxylic acid (7-chloro-2-dimethylcarbamoyl-4-oxo-1-phenyl-1,4-dihydro-quinolin-3-ylmethyl)-amide] | 9600 | 51 |
| CN(C)C(=O)c1c(CNC(=O)c2cnc(N3CCC(CO)CC3)s2)c(=O)c2ccc(Cl)cc2n1-c1ccccc1 [Example I-26] | 14000 | 98 |
| CN(C)C(=O)c1c(CNC(=O)c2cnc(N3CCC(CCO)CC3)s2)c(=O)c2ccc(Cl)cc2n1-c1ccccc1 [Example I-27, 7-Chloro-3-[4({2-[4-(2-hydroxy-ethyl)-piperidin-1-yl]-thiazole-5-carbonyl}-amino)-methyl]-4-oxo-1-phenyl-1,4-dihydro-quinoline-2-carboxylic acid dimethylamide] | 8000 | 82 |
| CN(C)C(=O)c1c(CNC(=O)c2ccc(N3CCCCC3)nc2)c(=O)c2ccc(Cl)cc2n1-c1ccccc1 [Example I-28, 3,4,5,6-Tetrahydro-2H-[1,2′]bipyridinyl-5′-carboxylic acid (7-chloro-2-dimethylcarbamoyl-4-oxo-1-phenyl-1,4-dihydro-quinolin-3-ylmethyl)-amide trifluoroacetate salt] | 9700 | 91 |
| O=C(NCc1cn(-c2ccccc2)c2cc(Cl)ccc2c1=O)c1ccn(Cc2ccccc2)c(=O)c1 [Example I-29, 1-Benzyl-2-oxo-1,2-dihydro-pyridine-4-carboxylic acid (7-chloro-4-oxo-1-phenyl-1,4-dihydro-quinolin-3-ylmethyl)-amide] | 5000 | 13 |
| Cn1cc(C(=O)NCc2cn(-c3ccccc3)c3cc(Cl)ccc3c2=O)cn1 [Example I-30, 1-Methyl-1H-pyrazole-4-carboxylic acid (7-chloro-4-oxo-1-phenyl-1,4-di hydro-quinolin-3-ylmethyl)-amide] | 42000 | 18 |
| O=C(NCc1cn(-c2ccccc2)c2cc(Cl)ccc2c1=O)c1ccnc(N2CCOCC2)c1 [Example I-31, N-(7-Chloro-4-oxo-1-phenyl-1,4-dihydro-quinolin-3-ylmethyl)-2-morpholin-4-yl-isonicotinamide] | 30000 | 31 |
| O=C(NCc1cn(-c2ccccc2)c2cc(Cl)ccc2c1=O)c1ccnc(N2CCCC2)c1 [Example I-32, N-(7-Chloro-4-oxo-1-phenyl-1,4-dihydro-quinolin-3-ylmethyl)-2-pyrrolidin-1-yl-isonicotinamide] | 29000 | 38 |
| O=C(NCc1cn(-c2ccccc2)c2cc(Cl)ccc2c1=O)c1ccc2nc[nH]c2c1 [Example I-33, 3H-Benzoimidazole-5-carboxylic acid (7-chloro-4-oxo-1-phenyl-1,4-dihydro-quinolin-3-ylmethyl)-amide] | 100000 | 41 |
| O=C(NCc1cn(-c2ccccc2)c2cc(Cl)ccc2c1=O)c1ccn(Cc2ccc(Cl)cc2)c(=O)c1 [Example I-34, 1-(4-Chloro-benzyl)-2-oxo-1,2-dihydro-pyridine-4-carboxylic acid (7-chloro-4-oxo-1-phenyl-1,4-dihydro-quinolin-3-ylmethyl)-amide] | 12000 | 44 |
| COc1ccc(C(=O)NCc2cn(-c3ccccc3)c3cc(Cl)ccc3c2=O)cn1 [Example I-35, N-(7-Chloro-4-oxo-1-phenyl-1,4-dihydro-quinolin-3-ylmethyl)-6-methoxy-nicotinamide] | 100000 | 54 |
| NS(=O)(=O)c1ccc(C(=O)NCc2cn(-c3ccccc3)c3cc(Cl)ccc3c2=O)cc1 [Example I-36, N-(7-Chloro-4-oxo-1-phenyl-1,4-dihydro-quinolin-3-ylmethyl)-4-sulfamoyl-benzamide] | 100000 | 55 |
| O=C(NCc1cn(-c2ccccc2)c2cc(Cl)ccc2c1=O)c1cnn(-c2ccccc2)c1 [Example I-37, 1-Phenyl-1H-pyrazole-4-carboxylic acid (7-chloro-4-oxo-1-phenyl-1,4-dihydro-quinolin-3-ylmethyl)-amide] | 25000 | 72 |
